“Also recorded” adds a separate entry of the source.
How the values were obtained:
[1] = system: MV4-11 cells; assay: Cellular proliferation assay (MTS), MV4-11; type: cell-based; conditions: Homo sapiens, AML-FLT3-ITD (homozygous), 72 h, mean±s.d. of three experiments
Method: (§1) MOLM-13 cells were purchased from the Deutsche Sammlung von Microorganismen und Zellkulturen GmbH (Braunschweig, Germany). RS4;11, MV4-11, U937, and K562 cell lines were obtained from the American Type Culture Collection (ATCC, Manassas, VA, USA). […] HEK293T- and FLT3-transfected HEK293T cells were cultured in DMEM (Invitrogen) medium with 10% FBS.
(§2) Proliferation assays were performed by seeding 10 000 cells per well in a 96-well culture plate. […] Cell viability was quantitated using the MTS method (Promega) according to the manufacturer's recommended protocol. The results were determined by measuring absorbance at 490 nm using a plate reader (Victor2; Perkin-Elmer).

[2] = system: U937 cells; assay: Cellular proliferation assay (MTS), U937; type: cell-based; conditions: Homo sapiens, U-937, AML-FLT3-negative, 72 h, mean±s.d. of three experiments
Method: as §1, §2

[3] = system: K562 cells; assay: Cellular proliferation assay (MTS), K562; type: cell-based; conditions: Homo sapiens, CML-Bcr-Abl FLT3-negative, 72 h, mean±s.d. of three experiments
Method: as §1, §2

[4] = system: MOLM-13 xenograft tumours; design: method as in Shankar et al, 2007; conditions: ref Shankar et al, 2007; cited from earlier work
[5] = system: MOLM-13 cells; assay: Cellular proliferation assay (MTS), MOLM-13; type: cell-based; conditions: Homo sapiens, AML-FLT3-ITD (heterozygous), 72 h, mean±s.d. of three experiments
Method: as §1, §2

[6] = system: RS4;11 cells; assay: Cellular proliferation assay (MTS), RS4;11; type: cell-based; conditions: Homo sapiens, RS4-11, 72 h, read-out: Proliferation GI50, RS4;11
Method: as §1, §2

[7] = system: FLT3-WT; design: method as in Shankar et al (2007); conditions: previously reported; ref Shankar et al (2007); read-out: IC50 for inhibition of FLT3-WT; cited from earlier work

`Cc1ccc(F)c(NC(=O)Nc2ccc(-c3cccc4[nH]nc(N)c34)cc2)c1` [ABT-869] gave a GI50 [1] of 82 ± 17 nM, a GI50 [2] of over 18000 nM and a GI50 [3] of over 20000 nM. The “Effect on MOLM-13 xenograft tumours” value [4] was “unable to shrink the MOLM-13 xenograft tumours; also recorded: not able to produce regressions of tumours”, the GI50 [5] was 38 ± 14 nM and the GI50 [6] was 9200 ± 2700 nM. The IC50 [7] was 4 nM.

Reference: PMC3273346, “BPR1J-097, a novel FLT3 kinase inhibitor, exerts potent inhibitory activity against AML” (British Journal of Cancer, 2011)
